Test results reported in patent US20070254907A1, “COMPOSITIONS AND METHODS FOR CONTROLLING INFESTATION” (HATCHTECH PTY LTD, priority 2003, published 2007).
Entries after “also recorded” stand apart in the source; their conditions may differ. Read-outs that look alike come from different tables or passages of the source.

Columns and labels:
[1] = test system: Helicoverpa armigera eggs; assay: Egg hatching of Helicoverpa armigera
Protocol: A range of concentrations were made up in water and the eggs placed in the solutions for approximately 2-10 seconds. The eggs which had been laid on cloth were then blotted dry and placed in an incubator at 26° C. for 3-4 days until hatch. Hatch rates were then assessed compared to a water only treated control (FIG. 5).
The compound was dissolved in 100% diethoxyglycol and diluted to a final concentration of 1% in water.
Several hundred Helicoverpa armigera eggs (Tatura×Toowoomba strains) were collected, that had been laid on fine mesh cloth over a 24 hour period.
Batches of Helicoverpa eggs were exposed to a specific inhibitor solution for between 2-10 seconds the excess solution drained by blotting with dry tissue paper. The egg masses were then placed in a humid box at 25 degrees until egg hatch. Control eggs were exposed to absolute methanol as described above. At day 6 post laying the eggs were assessed from the different treatments and the percentage of egg hatch determined relative to the control as shown in Table 12.
Batches of Helicoverpa eggs were then exposed to a specific inhibitor solution for between 2-10 seconds the excess solution drained by blotting with dry tissue paper. The egg masses were then placed in a humid box at 25° C. until egg hatch. Control eggs were exposed to absolute methanol as described above. At day 6 post laying the eggs were assessed from the different treatments and the percentage of egg hatch determined relative to the control as shown in Table 13.

B. ovis eggs = assay: Egg hatching in Bovicola ovis; type: in vivo; details: 10 mM; for Number hatched in different replicates: 10 eggs per replicate; for % Inhibition: in comparison to the controls; for Number unhatched: per replicate
Protocol: B. ovis eggs were collected from the wool of sheep that were infested with this parasite. The eggs were collected using forceps and with the aid of a dissecting microscope and placed in 24 well tissue culture plates in duplicate lots of 10 eggs per replicate. The eggs were then exposed to either methanol alone (control) or the test compounds for either 10 minutes or 1 minute before being removed from the wells and placed into individual glass vials containing a diet at the base of the tube. The tubes were placed in plastic containers containing a salt solution (to keep humidity constant at 68%) and the containers maintained at a temperature 32° C. The eggs were monitored for hatching over the following 12 days and % hatch inhibition determined in comparison to the controls.

Plutella xylostella eggs [2] = assay: whole plant or invertebrate; type: in vivo
Protocol: The ovicidal efficacy of 2-acetyl-1-tetralone was also tested against Plutella eggs.

Plutella xylostella eggs [3] = assay: Reversal of inhibition of Plutella egg hatching by added FeSO4; type: in vivo
Protocol: (§1) Within 24 hours of collection the following experimental design was chosen. Batches of eggs were exposed to 10 mM 6,6′-dimethyl-2,2′-dipyridyl for 2 seconds while additional batches of eggs were exposed to the solvent only (Methanol) for 2 seconds. All batches of eggs were allowed to air dry for 20 minutes at room temperature. The eggs were then given a 2 second exposure to FeSO4 at either 10, 5 or 1 mM, air dried and put in the incubator at 24° C. and allowed to hatch over the next 6 days. In addition, a positive control of 10 mM 6,6′-dimethyl-2,2′-dipyridyl was set up in which eggs were exposed to this compound for 2 seconds, air dried and placed in the incubator.
as §1, with “10 mM 5,5′-dimethyl-2,2′-dipyridyl for 2” for “10 mM 6,6′-dimethyl-2,2′-dipyridyl for 2”, “FeSO4 at 10, 5” for “FeSO4 at either 10, 5”, “put in an incubator at” for “put in the incubator at”, “of 10 mM, 5,5′-dimethyl-2,2′-dipyridyl was set” for “of 10 mM 6,6′-dimethyl-2,2′-dipyridyl was set”

[4] = test system: Lice (L) and Plutella (P) eggs; details: Lice (L) and Plutella (P)
lice eggs = assay: whole plant or invertebrate; type: in vivo; details: for H (number of eggs successfully hatched) / Ph (number of eggs partly hatched): per replicate, concentration not given
[5] = 10 and 1 mM, listed as 6,6′dimethyl-2,2′dipyridyl
[6] = Table 9, 0.001 mM, dipped 2-10 s, day 6 post laying
[7] = Table 9, 0.01 mM, dipped 2-10 s, day 6 post laying
[8] = Table 9, 0.1 mM, dipped 2-10 s, day 6 post laying
[9] = Table 9, 1 mM, dipped 2-10 s, day 6 post laying
[10] = Table 9, 10 mM, dipped 2-10 s, day 6 post laying
[11] = Table 10, eggs laid on cloth, 0.01 mM
[12] = Table 10, eggs laid on cloth, 0.1 mM
[13] = Table 10, eggs laid on cloth, 1 mM
[14] = Table 10, eggs laid on cloth, 10 mM
[15] = Table 11, eggs laid on parafilm, 0.01 mM
[16] = Table 11, eggs laid on parafilm, 0.1 mM
[17] = Table 11, eggs laid on parafilm, 1 mM
[18] = Table 11, eggs laid on parafilm, 10 mM
[19] = 10 mM chelator followed by 2 second exposure to 1 mM FeSO4
[20] = 10 mM chelator followed by 2 second exposure to 5 mM FeSO4
[21] = 10 mM chelator followed by 2 second exposure to 10 mM FeSO4
[22] = 10 mM chelator followed by 2 second exposure to MEOH
[23] = 10 mM chelator, 2 s, (+ve) control without second exposure

Cc1cccc(-c2cccc(C)n2)n1 [6,6′-dimethyl-2,2′-dipyridyl]
effect on egg hatching of Helicoverpa armigera (words) ([1]; 0.1 mM): no inhibition of egg hatching was observed
effect on egg hatching of Helicoverpa armigera (words) ([1]; 10 and 1 mM): significantly inhibit the egg hatching
effect on egg hatching of Helicoverpa armigera (words) [1, 5]: significantly inhibit egg hatching
% Inhibition ([1]; Table 12, 0.001 mM, relative to control (100% MeOH)): 0%
% Inhibition ([1]; Table 12, 0.01 mM, relative to control (100% MeOH)): 0%
% Inhibition ([1]; Table 12, 0.1 mM, relative to control (100% MeOH)): 0%
Number hatched ([1]; Table 12, 1 mM): 4
Number unhatched ([1]; Table 12, 1 mM): 140
% Inhibition ([1]; Table 12, 1 mM, relative to control (100% MeOH)): 97%
Number hatched ([1]; Table 12, 10 mM): 7
Number unhatched ([1]; Table 12, 10 mM): 98
% Inhibition ([1]; Table 12, 10 mM, relative to control (100% MeOH)): 94%
Number hatched ([1]; Table 13, 0.1 mM): 70
Number unhatched ([1]; Table 13, 0.1 mM): 0
% Inhibition ([1]; Table 13, 0.1 mM, relative to the control (100% MeOH)): 0%
Number hatched ([1]; Table 13, 1 mM): 2
Number unhatched ([1]; Table 13, 1 mM): 61
% Inhibition ([1]; Table 13, 1 mM, relative to the control (100% MeOH)): 97%
Number hatched ([1]; Table 13, 10 mM): 3
Number unhatched ([1]; Table 13, 10 mM): 48
% Inhibition ([1]; Table 13, 10 mM, relative to the control (100% MeOH)): 94%
effect on egg hatching of Helicoverpa armigera (words) ([1]; concentrations below 1 mM): No inhibition was recorded
egg hatching in the louse (B. ovis eggs; 10 or 1 minute exposure): completely inhibited
Number hatched in different replicates (B. ovis eggs; 1 minute exposure): Rep 1. 0; also recorded: Rep 2. 0
% Inhibition (B. ovis eggs; 1 minute exposure): 100%
Number unhatched (B. ovis eggs; 1 minute exposure): 10
Number hatched in different replicates (B. ovis eggs; 10 minute exposure): Rep 1. 0; also recorded: Rep 2. 0
% Inhibition (B. ovis eggs; 10 minute exposure): 100%
Number unhatched (B. ovis eggs; 10 minute exposure): 10
effect on egg hatching of Plutella xylostella (words) (Plutella xylostella eggs [2]; 0.1 and 0.01 mM): no observable effects on egg hatching
effect on egg hatching of Plutella xylostella (words) (Plutella xylostella eggs [2]; 10 and 1 mM, listed as 6,6′-dimethyl-2,2′dipyridyl): effective at inhibiting egg hatching
effect on egg hatching of Plutella xylostella (words) (Plutella xylostella eggs [2]; [5]): strong ovicidal effects
Ovicidal activity % (Plutella xylostella eggs [2]; Plutella (P), 1 mM): 100.00%
Activity class 0 = inactive 1 = low 2 = med 3 = high (Plutella xylostella eggs [2]; Plutella (P), listed as of 1 mM): 2 (a pLD50 value between 3 and 4 is considered moderately active (Class 2))
Number hatched (Plutella xylostella eggs [2]; [6]): 11
Number unhatched (Plutella xylostella eggs [2]; [6]): 6
% Inhibition (Plutella xylostella eggs [2]; Table 9, 0.001 mM, relative to control (100% MeOH)): 0%
Number hatched (Plutella xylostella eggs [2]; [7]): 13
Number unhatched (Plutella xylostella eggs [2]; [7]): 7
% Inhibition (Plutella xylostella eggs [2]; Table 9, 0.01 mM, relative to control (100% MeOH)): 0%
Number hatched (Plutella xylostella eggs [2]; [8]): 23
Number unhatched (Plutella xylostella eggs [2]; [8]): 29
% Inhibition (Plutella xylostella eggs [2]; Table 9, 0.1 mM, relative to control (100% MeOH)): 0%
Number hatched (Plutella xylostella eggs [2]; [9]): 0
Number unhatched (Plutella xylostella eggs [2]; [9]): 26
% Inhibition (Plutella xylostella eggs [2]; Table 9, 1 mM, relative to control (100% MeOH)): 100%
Number hatched (Plutella xylostella eggs [2]; [10]): 0
Number unhatched (Plutella xylostella eggs [2]; [10]): 79
% Inhibition (Plutella xylostella eggs [2]; Table 9, 10 mM, relative to control (100% MeOH)): 100%
Number hatched (Plutella xylostella eggs [2]; [11]): 23
Number unhatched (Plutella xylostella eggs [2]; [11]): 4
% Inhibition (Plutella xylostella eggs [2]; Table 10, eggs laid on cloth, 0.01 mM, relative to controls): 12%
Number hatched (Plutella xylostella eggs [2]; [12]): 49
Number unhatched (Plutella xylostella eggs [2]; [12]): 0
% Inhibition (Plutella xylostella eggs [2]; Table 10, eggs laid on cloth, 0.1 mM, relative to controls): 0%
Number hatched (Plutella xylostella eggs [2]; [13]): 0
Number unhatched (Plutella xylostella eggs [2]; [13]): 23
% Inhibition (Plutella xylostella eggs [2]; Table 10, eggs laid on cloth, 1 mM, relative to controls): 100%
Number hatched (Plutella xylostella eggs [2]; [14]): 0
Number unhatched (Plutella xylostella eggs [2]; [14]): 53
% Inhibition (Plutella xylostella eggs [2]; Table 10, eggs laid on cloth, 10 mM, relative to controls): 100%
Number hatched (Plutella xylostella eggs [2]; [15]): 92
Number unhatched (Plutella xylostella eggs [2]; [15]): 1
% Inhibition (Plutella xylostella eggs [2]; Table 11, eggs laid on parafilm, 0.01 mM, relative to controls): 0%
Number hatched (Plutella xylostella eggs [2]; [16]): 65
Number unhatched (Plutella xylostella eggs [2]; [16]): 11
% Inhibition (Plutella xylostella eggs [2]; Table 11, eggs laid on parafilm, 0.1 mM, relative to controls): 7%
Number hatched (Plutella xylostella eggs [2]; [17]): 0
Number unhatched (Plutella xylostella eggs [2]; [17]): 63
% Inhibition (Plutella xylostella eggs [2]; Table 11, eggs laid on parafilm, 1 mM, relative to controls): 100%
Number hatched (Plutella xylostella eggs [2]; [18]): 0
Number unhatched (Plutella xylostella eggs [2]; [18]): 106
% Inhibition (Plutella xylostella eggs [2]; Table 11, eggs laid on parafilm, 10 mM, relative to controls): 100%
Number hatched (Plutella xylostella eggs [3]; [19]): 33
Number unhatched (Plutella xylostella eggs [3]; [19]): 1
% Inhibition (Plutella xylostella eggs [3]; 10 mM chelator followed by 2 second exposure to 1 mM FeSO4, relative to FeSO4 controls): 3%
Number hatched (Plutella xylostella eggs [3]; [20]): 25
Number unhatched (Plutella xylostella eggs [3]; [20]): 0
% Inhibition (Plutella xylostella eggs [3]; 10 mM chelator followed by 2 second exposure to 5 mM FeSO4, relative to FeSO4 controls): 0%
Number hatched (Plutella xylostella eggs [3]; [21]): 12
Number unhatched (Plutella xylostella eggs [3]; [21]): 19
% Inhibition (Plutella xylostella eggs [3]; 10 mM chelator followed by 2 second exposure to 10 mM FeSO4, relative to FeSO4 controls): 38%
% Inhibition (Plutella xylostella eggs [3]; [22]): 90%
Number hatched (Plutella xylostella eggs [3]; [22]): 3
Number unhatched (Plutella xylostella eggs [3]; [22]): 28
% Inhibition (Plutella xylostella eggs [3]; [23]): 100%
Number hatched (Plutella xylostella eggs [3]; [23]): 0
Number unhatched (Plutella xylostella eggs [3]; [23]): 44
effect of added Fe in FeSO4 on the chelator's inhibition of egg hatching (Plutella xylostella eggs [3]; 10 mM chelator, then FeSO4 10, 5 or 1 mM): able to reverse the effects
inhibition of egg hatching after MeOH alone post exposure (Plutella xylostella eggs [3]; 10 mM chelator, then MeOH): significant degree of inhibition of egg hatching
Ovicidal activity % ([4]; 0.1 mM): 0.00%
Ovicidal activity % ([4]; 10 mM): 100.00%
Activity class 0 = inactive 1 = low 2 = med 3 = high ([4]; listed as of 0.1 mM): 2 (a pLD50 value between 3 and 4 is considered moderately active (Class 2))
Activity class 0 = inactive 1 = low 2 = med 3 = high ([4]; listed as of 10 mM): 2 (a pLD50 value between 3 and 4 is considered moderately active (Class 2))
lice egg hatching (lice eggs; all time points examined (24-120 hr post egg laying)): completely inhibited
H (number of eggs successfully hatched) (lice eggs; treated 24 hr post egg laying): 0
Ph (number of eggs partly hatched) (lice eggs; treated 24 hr post egg laying): 0
H (number of eggs successfully hatched) (lice eggs; treated 48 hr post egg laying): 0
Ph (number of eggs partly hatched) (lice eggs; treated 48 hr post egg laying): 0
H (number of eggs successfully hatched) (lice eggs; treated 72 hr post egg laying): 0
Ph (number of eggs partly hatched) (lice eggs; treated 72 hr post egg laying): 0
H (number of eggs successfully hatched) (lice eggs; treated 96 hr post egg laying): 0
Ph (number of eggs partly hatched) (lice eggs; treated 96 hr post egg laying): 0
H (number of eggs successfully hatched) (lice eggs; treated 120 hr post egg laying): 0
Ph (number of eggs partly hatched) (lice eggs; treated 120 hr post egg laying): 0
